Test results reported in the METLIN SMRT retention time set (Domingo-Almenara et al. 2019).

Test: gradient 5% acetonitrile 3 min, to 50% in 2 min, to 85% in 15 min, held 3 min, 100 µL/min
Details: column: Zorbax Extend-C18 2.1 x 50 mm; eluents: water / acetonitrile, 0.1% formic acid
How it was run: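 In both positive and negative ionization mode, a quadrupole time-of-flight mass spectrometer coupled to HPLC analyzed pure standards run in mixtures of ~100 molecules. The Zorbax Extend-C18 column (2.1 × 50 mm, 1.8 μm) was operated at 100 μL/min with water and acetonitrile, each containing 0.1% formic acid. The dead volume was 40 μL and the dwell volume 900 μL. Retention time came from adduct peaks that were computationally picked and individually inspected by hand.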

SMILES	RP-LC retention time
CCn1c(=O)n(CC(=O)NCCC2=CCCCC2)c(=O)c2cnc(-c3ccccc3)nc21	1130 s
COc1ccc(-c2nnc(Cc3nc(-c4ccc(Cl)cc4)no3)o2)cc1	1070 s
COc1ccc(-c2noc(C3CCCN3C(=O)Nc3cccc(C)c3)n2)cc1 (stereo not given)	830 s
CC(C)(C)n1nnnc1C1CC2(CCOCC2)C(=O)N1Cc1ccccc1 (stereo not given)	769 s
Cc1cc(C)c(S(=O)(=O)N2CCC(c3noc(-c4ccccc4)n3)CC2)c(C)c1	1350 s
Cc1cc(C(=O)Nc2nnc(Cc3ccc4c(c3)OCO4)o2)c(C)o1	722 s
CCCn1cc(CCNC(=O)Nc2cc(Cl)ccc2C)c2cccnc21	863 s
Cc1csc(-c2ccc(N3CCN(C(=O)c4cc(F)ccc4Cl)CC3)nc2)n1	910 s
CCOc1ccc(S(=O)(=O)N2CCN(c3cc(C)nc(NC4CCCCC4)n3)CC2)cc1	839 s
Cc1cc(C)c2c(N3CCCCC3)nc(C(=O)N3CCC(C)CC3)nc2n1	698 s
CCOC(CCNC(=O)CCC(=O)Nc1ccc2nc(N3CCN(C)CC3)cc(C)c2c1)OCC	546 s
CCC(C)NC(=O)Cn1ccc2ccc(-c3nnc(C)o3)cc21 (stereo not given)	713 s
CN1c2cc(F)ccc2C(=O)NC12CCN(C(=O)c1ccc(F)c(Cl)c1)CC2	823 s
COc1cccc(-n2ccc(=O)c(-c3nc(-c4ccc5c(c4)OCO5)no3)n2)c1	799 s
Cc1ncc([N+](=O)[O-])n1CC(C)O (stereo not given)	609 s
CCN1CCn2cc(S(=O)(=O)Nc3ccc(C)cc3)cc2C1=O	723 s
Cc1ccc(-n2c(N3CCCC(C(=O)NCCc4cccs4)C3)nc3ccsc3c2=O)cc1 (stereo not given)	913 s
O=C(NCC1CCOCC1)c1ccccc1Br	671 s
Cc1nn2c(CNS(=O)(=O)c3ccc(F)cc3)c(-c3ccccc3)nc2s1	859 s
Cc1ccc(S(=O)(=O)N2CCCCCC2c2nnc(C)o2)c(C)c1 (stereo not given)	862 s
Fc1ccc(-c2nnc(-c3ccc(-n4ccnc4)nc3)o2)cc1	648 s
Fc1ccc(Br)cc1-c1nc2ccc(Cl)cn2c1Nc1ccc2c(c1)OCCO2	929 s
CCc1ccc(Nc2nc(C(=O)NCCCOC)nc3ccccc23)cc1	750 s

SMILES	RP-LC retention time
CCCNC(=O)C1CCN(c2nc3ccc(-c4ccccc4F)nc3s2)CC1	951 s
O=C(Nc1cccnc1)c1cccc(S(=O)(=O)N2CCCCCC2)c1	631 s
Cc1ccc(-c2nc3cnccn3c2NCCC(=O)NCC2CC2)cc1	636 s
O=C(NC1CC1)C1c2ccccc2CC(=O)N1Cc1ccccc1 (stereo not given)	750 s
Cn1c(=O)c(=O)n(C)c2cc(N3CCCCC3)c(NC(=O)c3ccco3)cc21	840 s
Cn1c(=O)n(Cc2ccc(Br)cc2F)c(=O)c2cnc(-c3cccnc3)nc21	968 s
CC(C)c1nc(N2CCCC2=O)sc1C(=O)NCc1ccc(N(C)C)cc1	675 s
CC(=O)c1cccc(NC(=O)Cn2nc3c(cc2=O)CN(C(C)=O)CC3)c1	601 s
Cc1nc(C)c(C(=O)N2CCCC(c3nn(C)c(=O)n3-c3ccccc3)C2)s1 (stereo not given)	641 s
CC1=C/C(=C2/N=C(N(C)C)SS2)C(C)=N1	611 s
CCN(C(=O)C1C(=O)NC2(C)CC1c1ccccc1O2)c1ccccc1 (stereo not given)	820 s
CCc1ccc(Oc2cc(N3CCC(C(=O)NC4CCC(C)CC4)CC3)ncn2)cc1 (stereo not given)	1120 s
O=C(Nc1ccc2nncn2c1)Nc1ccccc1Cl	718 s
CCc1ccc(-c2ccc(=O)n(CCc3nc(-c4ccc(C)cc4)no3)n2)cc1	1180 s
CC(C)NC(=O)Cc1cn2cc(Br)ccc2n1	556 s
O=S(=O)(c1cccn2c(SCc3ccc(Cl)cc3)nnc12)N1CCCC1	848 s
C#CCSc1nc2ccccc2c2nc(-c3ccncc3)nn12	977 s
CCN1C(=O)C(CC(=O)NC(C)c2ccccc2)Sc2ncccc21 (stereo not given)	751 s
Cc1ccc(S(=O)(=O)N2CCn3c(nnc3C3CCN(C(C)C)C3)C2)c(C)c1 (stereo not given)	616 s
CCC(C)NC(=O)c1cc(C)[nH]n1 (stereo not given)	623 s
CCN1CCN(CCNC(=O)C2CCCN(c3ncc(-c4ccc(F)cc4)cn3)C2)CC1 (stereo not given)	632 s
CC(C)CCNC(=O)CCSC1CCc2ccccc2NC1=O (stereo not given)	777 s
